The results in this text go back to ChEMBL document CHEMBL1154202, “Arylcarboxyamino-substituted diaryl ureas as potent and selective FLT3 inhibitors” (Bioorg Med Chem Lett, 2009).

For orientation: IC50 means the midpoint of a concentration-inhibition curve. The term Kd denotes a measure of binding affinity in units of concentration. Low values mean tighter binding, high ones weaker binding. What is called AUC is concentration integrated over time. The low end stands for less exposure, the high end for more exposure. What is called half-life is how long it takes for the measured level to halve. Low values mean rapid decline, high ones slow decline. A word on the Cmax: it is the maximum level reached in the sampled fluid or tissue.

Calls of active or inactive are those of the source. The calls are words filed in the database; no cut-off is given here. Where only a bound is given, the exact number is not on record here.

The subject of series [1] is MV4-11. The series is described as follows: Antitumor activity against human MV411 cells assessed as inhibition of cell proliferation. The series is classed as functional, cell-based.
Series [2] concerns the target T1, Receptor-type tyrosine-protein kinase FLT3 (Homo sapiens, UniProt P36888).
T1 sequence (P36888 whole entry): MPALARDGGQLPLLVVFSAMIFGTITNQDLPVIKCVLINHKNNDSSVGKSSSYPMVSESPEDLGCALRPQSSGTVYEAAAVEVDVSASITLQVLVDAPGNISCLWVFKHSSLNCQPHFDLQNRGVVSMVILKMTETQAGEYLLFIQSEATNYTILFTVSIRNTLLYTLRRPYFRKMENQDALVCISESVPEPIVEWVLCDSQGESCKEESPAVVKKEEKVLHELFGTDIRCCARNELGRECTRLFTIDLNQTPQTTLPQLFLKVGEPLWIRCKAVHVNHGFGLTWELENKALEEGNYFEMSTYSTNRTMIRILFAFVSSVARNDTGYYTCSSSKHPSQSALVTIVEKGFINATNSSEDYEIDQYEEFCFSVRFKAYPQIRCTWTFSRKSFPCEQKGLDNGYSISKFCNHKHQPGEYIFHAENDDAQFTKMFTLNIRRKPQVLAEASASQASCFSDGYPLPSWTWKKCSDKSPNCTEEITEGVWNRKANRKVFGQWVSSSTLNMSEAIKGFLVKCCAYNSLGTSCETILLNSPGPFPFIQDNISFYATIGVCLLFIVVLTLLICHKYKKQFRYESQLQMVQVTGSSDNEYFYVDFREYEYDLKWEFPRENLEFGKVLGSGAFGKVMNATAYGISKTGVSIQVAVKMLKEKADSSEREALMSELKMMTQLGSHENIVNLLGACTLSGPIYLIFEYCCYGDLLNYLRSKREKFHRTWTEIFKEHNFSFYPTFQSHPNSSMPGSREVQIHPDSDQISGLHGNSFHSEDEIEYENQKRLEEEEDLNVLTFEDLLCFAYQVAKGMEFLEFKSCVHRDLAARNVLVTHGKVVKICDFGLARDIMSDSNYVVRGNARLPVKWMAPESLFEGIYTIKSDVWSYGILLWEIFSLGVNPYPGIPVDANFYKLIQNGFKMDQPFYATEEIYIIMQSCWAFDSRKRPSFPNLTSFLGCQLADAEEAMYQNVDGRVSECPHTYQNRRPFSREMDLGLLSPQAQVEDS

In series [3] the test system is MV4-11. Description: Antitumor activity against human MV411 cells in xenografted athymic nude mouse model assessed as decrease in tumor size at 30 mg/kg, po qd for 28 days. Type of series: functional, organism-based. The arrangement: dose 30 mg/kg.
The subject of series [4] is MV4-11. Description: Antitumor activity against human MV411 cells in xenografted athymic nude mouse model assessed as decrease in tumor size at 10 mg/kg, po qd for 28 days measured after 29 to 36 days. The series is classed as functional.
Series [5] deals with Mus musculus. Description: AUC in nude mouse at 10 mg/kg, po. The arrangement: dose 10 mg/kg, route oral. To be noted: in vivo. Type of series: ADME, organism-based, Plasma.
Series [6] relates to Mus musculus. The series is described as follows: Toxicity in human MV411 cells in xenografted athymic nude mouse model assessed as change in body weight at 10 mg/kg, po qd for 28 days. The note with it: in vivo, 672 h. Further details: dose 10 mg/kg, route oral. The series is classed as organism-based, MV4-11.
Series [7] in a line: Half life in nude mouse at 10 mg/kg, po. Further details: dose 10 mg/kg, route oral. The note with it: in vivo. Type of series: ADME, organism-based.
Series [8] deals with Mast/stem cell growth factor receptor Kit (Homo sapiens, UniProt P10721). Description: Binding affinity to KIT.
The target of series [9] is Vascular endothelial growth factor receptor 2 (Homo sapiens, UniProt P35968). The series is described as follows: Binding affinity to VEGFR2.
In series [10] the test system is MV4-11. The series is described as follows: Antitumor activity against human MV411 cells in xenografted athymic nude mouse model assessed as decrease in tumor size at 10 mg/kg, po qd for 28 days measured after 36 to 56 days. Type of series: functional, organism-based. The arrangement: dose 10 mg/kg. (In general: Xenograft models place foreign cells or tissue in a host animal.)

Series [11] concerns the target Proto-oncogene tyrosine-protein kinase receptor Ret (Homo sapiens, UniProt P07949). Description: Binding affinity to RET.
In series [12] the target is Platelet-derived growth factor receptor beta (Homo sapiens, UniProt P09619). The series is described as follows: Binding affinity to PDGFRbeta.
Series [13] has as its system MV4-11. Description: Antitumor activity against human MV411 cells in xenografted athymic nude mouse model assessed as decrease in tumor size at 10 mg/kg, po qd for 28 days. The arrangement: dose 10 mg/kg. The series is classed as functional, organism-based.
The target in series [14] is Macrophage colony-stimulating factor 1 receptor (Homo sapiens, UniProt P07333). The series is described as follows: Binding affinity to CSF1R.
Series [15] can be described thus: Cmax in nude mouse at 10 mg/kg, po. Type of series: ADME, organism-based. The arrangement: dose 10 mg/kg, route oral. To be noted: in vivo.

Proto-oncogene tyrosine-protein kinase receptor Ret, sequence (P07949 whole entry): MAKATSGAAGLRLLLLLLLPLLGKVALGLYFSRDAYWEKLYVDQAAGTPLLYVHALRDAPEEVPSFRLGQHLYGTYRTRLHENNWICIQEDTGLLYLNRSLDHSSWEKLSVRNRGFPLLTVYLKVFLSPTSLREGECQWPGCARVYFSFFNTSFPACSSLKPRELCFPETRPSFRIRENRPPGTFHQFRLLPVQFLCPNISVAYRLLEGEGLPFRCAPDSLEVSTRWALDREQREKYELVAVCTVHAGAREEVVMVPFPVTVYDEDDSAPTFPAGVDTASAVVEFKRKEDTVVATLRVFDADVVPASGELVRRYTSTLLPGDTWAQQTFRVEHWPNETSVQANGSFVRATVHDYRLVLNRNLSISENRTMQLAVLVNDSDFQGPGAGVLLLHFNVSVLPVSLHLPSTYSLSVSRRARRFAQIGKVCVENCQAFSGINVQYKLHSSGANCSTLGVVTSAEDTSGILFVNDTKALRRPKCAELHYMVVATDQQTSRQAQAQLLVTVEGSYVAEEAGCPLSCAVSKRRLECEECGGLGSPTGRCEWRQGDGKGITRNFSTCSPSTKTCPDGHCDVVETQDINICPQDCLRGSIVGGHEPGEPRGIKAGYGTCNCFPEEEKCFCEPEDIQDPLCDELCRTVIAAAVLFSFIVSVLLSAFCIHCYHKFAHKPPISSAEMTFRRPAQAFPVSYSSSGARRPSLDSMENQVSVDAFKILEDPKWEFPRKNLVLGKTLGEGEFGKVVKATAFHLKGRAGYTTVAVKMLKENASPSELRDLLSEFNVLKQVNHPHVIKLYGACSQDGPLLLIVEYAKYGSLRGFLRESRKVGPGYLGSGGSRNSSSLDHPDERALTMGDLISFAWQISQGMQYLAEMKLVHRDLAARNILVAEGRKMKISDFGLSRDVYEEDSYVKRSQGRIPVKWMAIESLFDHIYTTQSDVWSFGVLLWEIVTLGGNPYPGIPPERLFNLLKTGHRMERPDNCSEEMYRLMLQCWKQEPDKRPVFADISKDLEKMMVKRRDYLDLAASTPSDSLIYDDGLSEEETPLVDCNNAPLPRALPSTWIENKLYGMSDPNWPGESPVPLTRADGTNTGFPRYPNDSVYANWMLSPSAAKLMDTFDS
Mast/stem cell growth factor receptor Kit, sequence (P10721 whole entry): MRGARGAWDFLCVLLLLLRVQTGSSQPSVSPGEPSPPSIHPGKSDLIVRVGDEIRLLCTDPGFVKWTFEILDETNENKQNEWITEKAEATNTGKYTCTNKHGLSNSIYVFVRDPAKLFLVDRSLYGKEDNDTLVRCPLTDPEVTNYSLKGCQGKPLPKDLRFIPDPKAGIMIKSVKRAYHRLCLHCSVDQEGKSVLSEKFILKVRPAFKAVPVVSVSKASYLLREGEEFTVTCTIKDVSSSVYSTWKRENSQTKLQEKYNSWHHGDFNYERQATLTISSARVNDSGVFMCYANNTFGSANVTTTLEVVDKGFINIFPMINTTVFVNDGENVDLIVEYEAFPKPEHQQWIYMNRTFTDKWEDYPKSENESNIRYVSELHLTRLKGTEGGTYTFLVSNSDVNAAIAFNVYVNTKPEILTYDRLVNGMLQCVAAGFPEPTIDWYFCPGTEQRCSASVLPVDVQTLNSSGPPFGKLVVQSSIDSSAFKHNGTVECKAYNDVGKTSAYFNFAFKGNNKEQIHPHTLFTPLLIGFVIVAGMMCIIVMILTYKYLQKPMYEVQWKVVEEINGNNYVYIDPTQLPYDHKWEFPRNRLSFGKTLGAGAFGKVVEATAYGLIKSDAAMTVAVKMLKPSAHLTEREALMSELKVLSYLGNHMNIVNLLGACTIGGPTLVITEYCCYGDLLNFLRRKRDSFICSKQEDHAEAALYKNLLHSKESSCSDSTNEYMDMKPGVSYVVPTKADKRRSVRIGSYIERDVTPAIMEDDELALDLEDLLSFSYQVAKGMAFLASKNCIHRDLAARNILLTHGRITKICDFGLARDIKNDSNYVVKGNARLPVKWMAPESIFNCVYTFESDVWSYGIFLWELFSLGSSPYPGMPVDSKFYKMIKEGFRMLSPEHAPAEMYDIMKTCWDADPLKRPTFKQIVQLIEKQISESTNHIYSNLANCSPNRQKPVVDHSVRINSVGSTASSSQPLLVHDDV
Platelet-derived growth factor receptor beta, sequence (P09619 whole entry): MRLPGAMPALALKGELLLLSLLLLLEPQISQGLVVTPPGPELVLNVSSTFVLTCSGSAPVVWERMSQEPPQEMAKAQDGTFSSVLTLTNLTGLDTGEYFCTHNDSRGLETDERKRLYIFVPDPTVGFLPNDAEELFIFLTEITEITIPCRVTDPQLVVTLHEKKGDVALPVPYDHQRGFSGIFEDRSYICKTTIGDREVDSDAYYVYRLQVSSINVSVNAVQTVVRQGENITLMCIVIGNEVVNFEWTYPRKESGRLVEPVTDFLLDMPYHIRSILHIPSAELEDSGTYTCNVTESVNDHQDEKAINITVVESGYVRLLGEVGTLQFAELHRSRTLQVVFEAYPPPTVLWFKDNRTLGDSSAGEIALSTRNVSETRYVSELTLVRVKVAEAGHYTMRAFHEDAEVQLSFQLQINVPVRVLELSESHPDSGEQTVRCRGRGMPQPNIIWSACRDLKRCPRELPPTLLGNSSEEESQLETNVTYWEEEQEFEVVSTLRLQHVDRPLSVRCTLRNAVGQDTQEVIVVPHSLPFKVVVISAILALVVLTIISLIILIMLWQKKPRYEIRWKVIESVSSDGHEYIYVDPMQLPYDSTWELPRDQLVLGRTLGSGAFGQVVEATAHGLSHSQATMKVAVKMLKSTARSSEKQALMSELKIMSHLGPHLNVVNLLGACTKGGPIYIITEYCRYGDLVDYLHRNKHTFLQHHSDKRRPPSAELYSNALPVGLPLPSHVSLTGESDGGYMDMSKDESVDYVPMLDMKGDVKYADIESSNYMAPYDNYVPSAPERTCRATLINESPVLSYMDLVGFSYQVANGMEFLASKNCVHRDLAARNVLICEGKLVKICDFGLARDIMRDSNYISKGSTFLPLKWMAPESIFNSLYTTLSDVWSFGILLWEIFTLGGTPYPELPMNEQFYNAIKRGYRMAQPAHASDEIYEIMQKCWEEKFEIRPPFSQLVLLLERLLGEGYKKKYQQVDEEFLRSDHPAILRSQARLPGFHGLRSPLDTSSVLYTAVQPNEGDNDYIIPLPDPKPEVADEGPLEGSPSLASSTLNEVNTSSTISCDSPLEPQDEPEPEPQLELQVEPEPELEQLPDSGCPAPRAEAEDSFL
Macrophage colony-stimulating factor 1 receptor, sequence (P07333 whole entry): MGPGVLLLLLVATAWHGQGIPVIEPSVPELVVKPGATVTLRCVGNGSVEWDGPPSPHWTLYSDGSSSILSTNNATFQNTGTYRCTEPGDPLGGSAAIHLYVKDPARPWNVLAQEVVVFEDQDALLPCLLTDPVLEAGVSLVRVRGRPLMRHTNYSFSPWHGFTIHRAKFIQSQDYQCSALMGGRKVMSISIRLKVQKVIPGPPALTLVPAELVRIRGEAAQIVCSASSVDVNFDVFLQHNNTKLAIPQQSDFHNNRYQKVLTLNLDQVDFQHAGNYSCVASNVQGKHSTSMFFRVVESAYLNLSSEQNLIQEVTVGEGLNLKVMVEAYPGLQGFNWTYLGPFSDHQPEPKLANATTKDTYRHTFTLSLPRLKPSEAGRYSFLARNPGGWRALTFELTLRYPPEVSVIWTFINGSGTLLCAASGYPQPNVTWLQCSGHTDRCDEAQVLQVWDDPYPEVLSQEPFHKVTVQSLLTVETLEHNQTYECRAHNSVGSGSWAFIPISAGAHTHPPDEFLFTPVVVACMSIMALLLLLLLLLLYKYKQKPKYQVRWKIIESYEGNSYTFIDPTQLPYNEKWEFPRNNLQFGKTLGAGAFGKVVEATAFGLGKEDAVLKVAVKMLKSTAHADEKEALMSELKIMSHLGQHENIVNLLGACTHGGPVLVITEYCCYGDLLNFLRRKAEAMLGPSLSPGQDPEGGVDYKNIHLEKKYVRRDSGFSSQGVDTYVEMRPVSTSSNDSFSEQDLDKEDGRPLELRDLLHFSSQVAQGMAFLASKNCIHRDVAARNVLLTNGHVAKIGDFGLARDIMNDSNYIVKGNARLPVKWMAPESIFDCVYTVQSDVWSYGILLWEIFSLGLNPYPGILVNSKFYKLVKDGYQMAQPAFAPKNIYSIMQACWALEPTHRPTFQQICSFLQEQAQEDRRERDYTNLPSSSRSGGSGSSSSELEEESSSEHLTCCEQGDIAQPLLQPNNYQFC

For the compound `CC(C)(C)c1cc(NC(=O)Nc2ccc(NC(=O)Cc3ccccc3)cc2)no1`, the half-maximal inhibitory concentration (IC50) in [1] turned out to be 1090 nM. The same compound had a Kd in [2] of 510 nM.
In the same order, the values of `CC(C)(C)c1cc(NC(=O)Nc2ccc(C(=O)Nc3ccccc3)cc2)no1` are 101 nM and 7.4 nM.
In the same order, the values of `CC(C)(C)c1cc(NC(=O)Nc2ccc(C(=O)Nc3cccnc3)cc2)no1` are 199 nM and 25 nM.
The like results for `CC(C)(C)c1cc(NC(=O)Nc2ccc(NC(=O)c3ccccc3)cc2)no1` were, in that order, 30 nM and 0.98 nM.
Turning to `CCN(CC)CCNC(=O)c1c(C)[nH]c(/C=C2\C(=O)Nc3ccc(F)cc32)c1C`, the result in series [3] and in series [4] was Active.
In the case of `CC(C)(C)c1cc(NC(=O)Nc2ccc(C(=O)Nc3ccccn3)cc2)no1`, in series [1], the IC50 came to 104 nM. In series [2], this compound registered a Kd of 8.15 nM.
In the same order, the values of `CC(C)(C)c1cc(NC(=O)Nc2ccc(NC(=O)c3cccc(O)n3)cc2)no1` are 46.7 nM and 2.5 nM.
With `CC(C)(C)c1cc(NC(=O)Nc2ccc(NC(=O)c3cn4c(n3)sc3ccccc34)cc2)no1`, in [1], the concentration for half-maximal inhibition (IC50) came out at 0.44 nM. This compound came in with an AUC in series [5] of 13.2 µM·h. The Activity in [6] was less than 5%; in [4], 90 mm3. Besides, the half-life in [7] was 138 min. Besides, the Kd in [8] is 7.5 nM; in series [9], more than 200 nM; in series [11], 3 nM; in [12], 2.2 nM; in series [2], 1.6 nM; in [14], 10 nM. For the same compound, the outcome in [10] was inactive. Further, the result in series [13] was Active. Moreover, the Cmax in series [15] amounted to 2360 nM.
`CC(C)(C)c1cc(NC(=O)Nc2ccc(NC(=O)c3nccc4ccccc34)cc2)no1`: in series [1], the IC50 was 2.8 nM. In series [2], this compound yielded a Kd of 0.74 nM.
In the same order, the values of `CC(C)(C)c1cc(NC(=O)Nc2ccc(NC(=O)c3ccc4ccccc4c3)cc2)no1` are 3.1 nM and 0.75 nM.
In the same order, the values of `CC(C)(C)c1cc(NC(=O)Nc2ccc(C(=O)Nc3ccncc3)cc2)no1` are 414 nM and 38.4 nM.
Take `CC(C)(C)c1cc(NC(=O)Nc2ccc(NC(=O)C3CCNCC3)cc2)no1`: the IC50 in [1] was 10500 nM. In series [2], this compound displayed a Kd of 240 nM.
In the case of `CC(C)(C)c1cc(NC(=O)Nc2ccc(NC(=O)c3ccncc3)cc2)no1`, the IC50 in [1] was 132 nM. The same compound yielded a dissociation constant (Kd) in series [2] of 10.1 nM.
The like results for `CC(C)(C)c1cc(NC(=O)Nc2ccc(NC(=O)c3ccccn3)cc2)no1` were, in that order, 1.6 nM and 0.76 nM.
Consider `CC(C)(C)c1cc(NC(=O)Nc2ccc(NC(=O)c3ncccc3O)cc2)no1`, for which the IC50 in series [1] is 0.71 nM. Moreover, the Kd in series [8] was determined as 0.96 nM; in series [11] it was 4.7 nM; in series [12], 2.6 nM; in [2], 0.74 nM; in series [14], 4.4 nM.
As for `CC(C)(C)c1cc(NC(=O)Nc2ccc(NC(=O)c3cc4ccccc4cn3)cc2)no1`, in [1], the IC50 stood at 0.29 nM. In addition, in [5], the AUC came to 4.25 µM·h. In addition, the Activity in series [6] was less than 5%; in [4], 90 mm3. The compound further gave a half-life in series [7] of 132 min. The Kd in series [8] is 1.8 nM; in [9], more than 200 nM; in [11] it was 7.3 nM; in series [12], 7 nM. In series [10], the result was inactive. In series [15], this compound gave a Cmax of 1310 nM.
For the compound `CC(C)(C)c1cc(NC(=O)Nc2ccc(NC(=O)c3cccnc3)cc2)no1`, the IC50 in [1] was found to be 159 nM. This compound yielded a Kd in series [2] of 15 nM.
In the same order, the values of `Cc1ccc2sc(C(=O)Nc3ccc(NC(=O)Nc4cc(C(C)(C)C)on4)cc3)cc2c1` are 0.85 nM and 0.77 nM.
